Results: paper PMC3685178 (Chemical communications (Cambridge, England), 2013)

Tested on: MCF-7 tumour cells
Type: cell-based, human
Details: MCF-7, 50 nM, 48 h exposure; cells larger in size, characteristic of G2-M arrest

In the case of `CC(=O)O[C@H]1C(=O)[C@@]2(C)[C@H]([C@H](OC(=O)c3ccccc3)[C@]3(O)C[C@H](OC(=O)[C@H](O)[C@@H](NC(=O)c4ccccc4)c4ccccc4)C(C)=C1C3(C)C)[C@]1(OC(C)=O)CO[C@@H]1C[C@@H]2O` [PTX, paclitaxel], the “cell populations in live/dead assay” value is reported as “significantly reduced”.
